Test results: ChEMBL document CHEMBL4765492, “Discovery of GLPG2451, a Novel Once Daily Potentiator for the Treatment of Cystic Fibrosis” (J Med Chem, 2021)
Converted amounts (≈) assume the structure as drawn. The source made the active and inactive calls. The rule behind the calls is not given here.

What was measured:
[1] = Permeability efflux ratio in MDCK cells; assay type: ADME, cell-based, Canis lupus familiaris; settings: dog
[2] = Unbound intrinsic clearance in rat liver microsomes; assay type: ADME, Microsome
[3] = AUC in rat at 5 mg/kg, po; assay type: ADME, organism-based; parameters: dose 5 mg/kg; settings: in vivo
[4] = target: T1, Cystic fibrosis transmembrane conductance regulator (Homo sapiens, UniProt P13569, F508DEL); experiment: Potentiation of CFTR F508del mutant (unknown origin) expressed in human CFBE41o- cells co-expressing YFP incubated for 10 mins by halide potentiator assay; assay type: cell-based
T1 sequence (P13569 as listed by the source): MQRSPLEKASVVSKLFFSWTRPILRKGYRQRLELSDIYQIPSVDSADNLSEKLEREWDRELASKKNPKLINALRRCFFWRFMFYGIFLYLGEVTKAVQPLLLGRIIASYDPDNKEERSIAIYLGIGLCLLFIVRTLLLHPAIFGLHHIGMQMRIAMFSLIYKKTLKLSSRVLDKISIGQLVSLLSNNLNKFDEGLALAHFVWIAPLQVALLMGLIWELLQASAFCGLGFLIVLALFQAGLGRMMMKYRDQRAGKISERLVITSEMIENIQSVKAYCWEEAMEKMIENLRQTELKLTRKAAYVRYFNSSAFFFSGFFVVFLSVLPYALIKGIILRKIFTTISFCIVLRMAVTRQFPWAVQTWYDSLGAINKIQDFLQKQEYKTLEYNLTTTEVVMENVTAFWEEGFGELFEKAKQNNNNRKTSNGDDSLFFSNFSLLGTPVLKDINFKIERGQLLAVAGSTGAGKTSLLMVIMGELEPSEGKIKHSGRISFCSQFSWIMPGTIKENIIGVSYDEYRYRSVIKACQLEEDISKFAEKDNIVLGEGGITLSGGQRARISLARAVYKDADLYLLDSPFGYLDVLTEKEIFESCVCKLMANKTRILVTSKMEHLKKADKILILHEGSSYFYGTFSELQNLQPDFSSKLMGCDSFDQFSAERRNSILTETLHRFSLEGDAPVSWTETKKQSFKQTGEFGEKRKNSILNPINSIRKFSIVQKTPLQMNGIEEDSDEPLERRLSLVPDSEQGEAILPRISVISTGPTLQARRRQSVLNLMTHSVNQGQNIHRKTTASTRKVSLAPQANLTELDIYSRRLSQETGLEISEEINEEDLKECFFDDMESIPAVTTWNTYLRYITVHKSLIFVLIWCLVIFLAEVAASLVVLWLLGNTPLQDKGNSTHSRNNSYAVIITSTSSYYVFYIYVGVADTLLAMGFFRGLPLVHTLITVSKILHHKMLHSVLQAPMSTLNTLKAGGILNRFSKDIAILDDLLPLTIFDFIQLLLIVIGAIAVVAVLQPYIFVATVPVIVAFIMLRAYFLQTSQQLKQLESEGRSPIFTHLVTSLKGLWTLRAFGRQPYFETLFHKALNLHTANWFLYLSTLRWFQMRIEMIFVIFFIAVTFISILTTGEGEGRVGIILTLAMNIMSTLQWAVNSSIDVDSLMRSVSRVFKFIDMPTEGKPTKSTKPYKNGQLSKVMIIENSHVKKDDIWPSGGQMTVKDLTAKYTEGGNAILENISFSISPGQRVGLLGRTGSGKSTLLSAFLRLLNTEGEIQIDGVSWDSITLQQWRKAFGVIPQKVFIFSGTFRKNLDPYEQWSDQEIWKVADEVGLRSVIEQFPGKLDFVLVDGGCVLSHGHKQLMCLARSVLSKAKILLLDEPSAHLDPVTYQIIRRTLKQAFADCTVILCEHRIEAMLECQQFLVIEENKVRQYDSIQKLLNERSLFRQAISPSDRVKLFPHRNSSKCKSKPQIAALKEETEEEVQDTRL

[5] = Permeability of compound across apical to basolateral membrane in MDCK cells; assay type: ADME, cell-based, Canis lupus familiaris; settings: dog, read-out: permeability
[6] = Unbound intrinsic clearance in rat hepatocytes; assay type: ADME, cell-based, Hepatocyte
[7] = test system: Cystic fibrosis transmembrane conductance regulator (Homo sapiens), P13569 [G551D]; experiment: Potentiation of CFTR G551D mutant (unknown origin) expressed in human HEK293 cells co-expressing YFP incubated for 10 mins by halide potentiator assay relative to control; assay type: cell-based; settings: filed as activator
Chain of Cystic fibrosis transmembrane conductance regulator (Homo sapiens), P13569 [G551D] (P13569 whole entry G551D): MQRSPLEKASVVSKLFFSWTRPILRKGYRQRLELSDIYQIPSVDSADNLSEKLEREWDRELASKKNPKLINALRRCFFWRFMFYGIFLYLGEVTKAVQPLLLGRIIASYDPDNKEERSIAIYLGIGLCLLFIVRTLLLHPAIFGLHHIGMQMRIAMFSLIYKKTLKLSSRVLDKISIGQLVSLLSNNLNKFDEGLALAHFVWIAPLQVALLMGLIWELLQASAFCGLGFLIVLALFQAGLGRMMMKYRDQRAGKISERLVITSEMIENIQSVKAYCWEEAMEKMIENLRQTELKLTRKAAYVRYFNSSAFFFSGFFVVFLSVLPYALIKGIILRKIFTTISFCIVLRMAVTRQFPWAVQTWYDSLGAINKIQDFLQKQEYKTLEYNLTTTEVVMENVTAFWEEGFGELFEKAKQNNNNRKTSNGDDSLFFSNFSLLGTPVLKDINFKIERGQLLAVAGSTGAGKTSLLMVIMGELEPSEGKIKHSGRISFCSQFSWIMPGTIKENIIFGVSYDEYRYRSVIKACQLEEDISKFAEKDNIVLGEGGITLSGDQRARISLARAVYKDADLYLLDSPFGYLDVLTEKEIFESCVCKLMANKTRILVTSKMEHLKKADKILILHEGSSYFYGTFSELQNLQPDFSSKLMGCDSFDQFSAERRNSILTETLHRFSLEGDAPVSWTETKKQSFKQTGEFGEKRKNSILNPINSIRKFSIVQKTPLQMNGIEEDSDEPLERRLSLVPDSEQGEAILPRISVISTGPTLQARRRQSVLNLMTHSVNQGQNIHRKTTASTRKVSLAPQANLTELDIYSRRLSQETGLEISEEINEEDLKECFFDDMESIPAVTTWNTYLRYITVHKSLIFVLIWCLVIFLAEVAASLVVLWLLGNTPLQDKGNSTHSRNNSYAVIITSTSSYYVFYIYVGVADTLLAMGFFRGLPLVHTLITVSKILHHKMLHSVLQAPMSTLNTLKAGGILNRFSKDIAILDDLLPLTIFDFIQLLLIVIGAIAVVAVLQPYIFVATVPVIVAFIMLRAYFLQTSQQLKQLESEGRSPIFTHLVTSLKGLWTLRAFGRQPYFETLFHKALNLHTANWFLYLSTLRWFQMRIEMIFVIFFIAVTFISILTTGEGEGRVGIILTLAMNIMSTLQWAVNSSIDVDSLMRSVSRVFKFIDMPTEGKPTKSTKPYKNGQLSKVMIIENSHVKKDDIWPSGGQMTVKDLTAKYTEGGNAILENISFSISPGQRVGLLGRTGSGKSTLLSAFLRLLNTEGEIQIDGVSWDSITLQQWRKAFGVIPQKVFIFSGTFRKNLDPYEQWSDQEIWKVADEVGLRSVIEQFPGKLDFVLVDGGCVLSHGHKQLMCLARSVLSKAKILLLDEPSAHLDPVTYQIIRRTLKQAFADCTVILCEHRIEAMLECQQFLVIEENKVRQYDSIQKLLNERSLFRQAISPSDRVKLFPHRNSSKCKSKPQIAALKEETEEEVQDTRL

[8] = test system: Cystic fibrosis transmembrane conductance regulator (Homo sapiens), P13569 [F508del,G551D]; experiment: Potentiation of CFTR F508del/G551D mutant in human HBE cells assessed as increase in channel current at 10 nM to 1000 nM incubated for 20 mins by Ussing chamber assay; assay type: cell-based; settings: Primary bronchial epithelial cell, filed as activator
Chain of Cystic fibrosis transmembrane conductance regulator (Homo sapiens), P13569 [F508del,G551D] (P13569 as listed by the source): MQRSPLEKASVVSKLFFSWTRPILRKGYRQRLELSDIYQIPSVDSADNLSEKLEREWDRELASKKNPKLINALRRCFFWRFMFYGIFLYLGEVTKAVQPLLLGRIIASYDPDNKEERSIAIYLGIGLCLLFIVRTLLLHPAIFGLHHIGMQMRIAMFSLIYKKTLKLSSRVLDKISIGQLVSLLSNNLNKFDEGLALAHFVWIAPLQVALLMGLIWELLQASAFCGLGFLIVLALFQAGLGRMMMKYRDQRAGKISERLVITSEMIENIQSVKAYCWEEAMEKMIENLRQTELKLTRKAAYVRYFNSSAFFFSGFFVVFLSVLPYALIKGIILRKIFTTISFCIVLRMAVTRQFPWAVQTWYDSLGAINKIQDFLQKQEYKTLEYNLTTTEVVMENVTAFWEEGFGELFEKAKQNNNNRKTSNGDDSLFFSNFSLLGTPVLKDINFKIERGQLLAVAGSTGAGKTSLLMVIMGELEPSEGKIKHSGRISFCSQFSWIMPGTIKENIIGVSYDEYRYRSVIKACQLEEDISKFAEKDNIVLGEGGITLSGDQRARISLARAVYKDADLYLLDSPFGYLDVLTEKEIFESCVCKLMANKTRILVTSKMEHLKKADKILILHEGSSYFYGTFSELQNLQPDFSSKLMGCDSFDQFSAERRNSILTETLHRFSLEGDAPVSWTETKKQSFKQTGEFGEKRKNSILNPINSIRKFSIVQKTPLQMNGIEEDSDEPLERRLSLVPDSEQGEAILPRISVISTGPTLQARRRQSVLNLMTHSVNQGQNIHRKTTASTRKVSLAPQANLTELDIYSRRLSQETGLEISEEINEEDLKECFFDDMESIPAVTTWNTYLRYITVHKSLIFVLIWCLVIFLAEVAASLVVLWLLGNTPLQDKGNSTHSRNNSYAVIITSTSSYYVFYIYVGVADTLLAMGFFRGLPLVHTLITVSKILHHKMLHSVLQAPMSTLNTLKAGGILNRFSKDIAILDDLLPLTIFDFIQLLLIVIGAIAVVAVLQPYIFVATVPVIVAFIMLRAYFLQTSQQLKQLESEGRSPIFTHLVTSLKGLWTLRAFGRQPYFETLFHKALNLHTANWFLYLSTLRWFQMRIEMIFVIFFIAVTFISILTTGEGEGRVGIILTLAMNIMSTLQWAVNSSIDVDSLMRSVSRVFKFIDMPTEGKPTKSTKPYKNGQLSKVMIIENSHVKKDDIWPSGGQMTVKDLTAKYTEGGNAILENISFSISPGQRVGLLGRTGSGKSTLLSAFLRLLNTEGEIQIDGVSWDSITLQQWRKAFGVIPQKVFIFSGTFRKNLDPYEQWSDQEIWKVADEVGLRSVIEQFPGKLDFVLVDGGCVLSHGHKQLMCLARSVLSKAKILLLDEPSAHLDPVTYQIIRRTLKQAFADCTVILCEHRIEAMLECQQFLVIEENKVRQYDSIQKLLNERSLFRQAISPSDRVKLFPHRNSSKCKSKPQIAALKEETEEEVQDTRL

[9] = Half life in Sprague-Dawley rat at 1 mg/kg, iv; assay type: ADME, organism-based; settings: in vivo
[10] = Clearance in Sprague-Dawley rat at 1 mg/kg, iv; assay type: ADME, organism-based; settings: in vivo
[11] = Kinetic aqueous solubility of the compound at pH 7.4; assay type: physicochemical; settings: buffer, read-out: Kinetic_solubility
[12] = Unbound clearance in Sprague-Dawley rat at 1 mg/kg, iv; assay type: ADME, organism-based; settings: in vivo
[13] = Unbound intrinsic clearance in human liver microsomes; assay type: ADME, Microsome
[14] = Inhibition of CYP450 (unknown origin); assay type: ADME; settings: human
[15] = target: T2, Nuclear receptor subfamily 1 group I member 2 (Homo sapiens, UniProt O75469); experiment: Activation of PXR (unknown origin) at 10 uM by CYP450 induction assay relative to rifampicin; assay type: ADME
T2 sequence (O75469 whole entry): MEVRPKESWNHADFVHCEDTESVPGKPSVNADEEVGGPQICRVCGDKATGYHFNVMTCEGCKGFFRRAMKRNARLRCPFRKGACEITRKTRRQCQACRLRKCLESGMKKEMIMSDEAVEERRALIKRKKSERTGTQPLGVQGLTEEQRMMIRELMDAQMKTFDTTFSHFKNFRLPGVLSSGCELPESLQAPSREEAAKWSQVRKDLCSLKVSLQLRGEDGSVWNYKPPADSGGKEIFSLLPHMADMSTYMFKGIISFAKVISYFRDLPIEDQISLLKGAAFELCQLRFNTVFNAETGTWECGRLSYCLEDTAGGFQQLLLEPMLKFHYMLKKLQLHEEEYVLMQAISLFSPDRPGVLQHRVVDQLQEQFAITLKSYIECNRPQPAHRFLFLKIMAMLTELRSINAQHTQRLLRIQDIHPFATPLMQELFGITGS

[16] = Volume of distribution at steady state in Sprague-Dawley rat at 1 mg/kg, iv; assay type: ADME, organism-based; settings: in vivo, read-out: Vdss
[17] = Oral bioavailability Cynomolgus monkey at 1 mg/kg, […]; assay type: ADME, organism-based, Macaca fascicularis; settings: in vivo
Cytochrome P450 2C9 = Cytochrome P450 2C9 (Homo sapiens, UniProt P11712); experiment: Inhibition of CYP2C9 (unknown origin); assay type: ADME
[18] = Oral bioavailability in Beagle dog at 1 mg/kg; assay type: ADME, organism-based, Canis lupus familiaris; settings: in vivo
[19] = Toxicity in human assessed as drug tolerability during phase I study
[20] = Unbound clearance in Cynomolgus monkey at 1 mg/kg, iv; assay type: ADME, organism-based, Macaca fascicularis; settings: in vivo
[21] = Thermodynamic solubility of the compound in the FASSIF medium; assay type: physicochemical; settings: read-out: Therm_solubility
Cytochrome P450 1A2 = target: T3, Cytochrome P450 1A2 (Homo sapiens, UniProt P05177); experiment: Inhibition of CYP1A2 (unknown origin); assay type: ADME
T3 sequence (P05177 whole entry): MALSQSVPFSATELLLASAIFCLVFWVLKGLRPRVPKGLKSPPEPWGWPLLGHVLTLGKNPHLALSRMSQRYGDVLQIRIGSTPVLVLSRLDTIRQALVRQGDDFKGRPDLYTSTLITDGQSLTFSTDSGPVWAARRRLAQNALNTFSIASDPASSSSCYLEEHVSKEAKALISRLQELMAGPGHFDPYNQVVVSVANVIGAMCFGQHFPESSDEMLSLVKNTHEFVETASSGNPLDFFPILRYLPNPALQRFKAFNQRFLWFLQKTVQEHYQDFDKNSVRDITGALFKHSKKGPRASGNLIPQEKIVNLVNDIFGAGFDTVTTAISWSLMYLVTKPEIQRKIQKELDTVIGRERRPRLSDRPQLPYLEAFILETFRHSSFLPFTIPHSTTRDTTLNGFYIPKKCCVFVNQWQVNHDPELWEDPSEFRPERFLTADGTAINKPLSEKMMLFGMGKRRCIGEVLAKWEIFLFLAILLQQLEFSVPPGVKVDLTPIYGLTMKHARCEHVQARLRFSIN

Cytochrome P450 3A4 = Cytochrome P450 3A4 (Homo sapiens, UniProt P08684); experiment: Inhibition of CYP3A4 (unknown origin); assay type: ADME
[22] = target: T1, Cystic fibrosis transmembrane conductance regulator; experiment: Potentiation of CFTR F508del mutant in human HBE cells by trans-epithelial clamp circuit assay; assay type: cell-based, Primary bronchial epithelial cell
[23] = Half life in Beagle dog at 1 mg/kg, iv; assay type: ADME, organism-based, Canis lupus familiaris; settings: in vivo
[24] = Unbound intrinsic clearance in dog liver microsomes; assay type: ADME, Canis lupus familiaris, Microsome
[25] = target: Voltage-gated inwardly rectifying potassium channel KCNH2 (Homo sapiens, UniProt Q12809); experiment: Inhibition of human ERG by manual patch clamp assay
[26] = Volume of distribution at steady state in Beagle dog at 1 mg/kg, iv; assay type: ADME, organism-based, Canis lupus familiaris; settings: in vivo, read-out: Vdss
Cytochrome P450 2C19 = Cytochrome P450 2C19 (Homo sapiens, UniProt P33261); experiment: Inhibition of CYP2C19 (unknown origin); assay type: ADME
[27] = Half life in Cynomolgus monkey at 1 mg/kg, iv; assay type: ADME, organism-based, Macaca fascicularis; settings: in vivo
Cytochrome P450 2D6 = Cytochrome P450 2D6 (Homo sapiens, UniProt P10635); experiment: Inhibition of CYP2D6 (unknown origin); assay type: ADME
Chain of Cytochrome P450 2D6 (P10635 whole entry): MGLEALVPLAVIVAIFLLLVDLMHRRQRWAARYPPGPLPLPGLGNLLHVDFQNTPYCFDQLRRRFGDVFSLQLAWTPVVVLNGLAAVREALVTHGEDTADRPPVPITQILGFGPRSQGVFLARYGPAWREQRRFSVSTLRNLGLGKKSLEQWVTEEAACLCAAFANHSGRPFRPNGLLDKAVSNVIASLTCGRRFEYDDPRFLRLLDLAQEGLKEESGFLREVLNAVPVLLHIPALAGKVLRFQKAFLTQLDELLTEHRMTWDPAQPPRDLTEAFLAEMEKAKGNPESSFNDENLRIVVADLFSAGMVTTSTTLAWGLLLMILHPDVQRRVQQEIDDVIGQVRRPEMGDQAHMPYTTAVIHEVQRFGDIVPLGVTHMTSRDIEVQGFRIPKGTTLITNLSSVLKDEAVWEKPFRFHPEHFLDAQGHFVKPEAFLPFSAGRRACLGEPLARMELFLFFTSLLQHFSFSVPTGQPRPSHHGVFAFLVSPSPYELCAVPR

[28] = Clearance in Beagle dog at 1 mg/kg, iv; assay type: ADME, organism-based, Canis lupus familiaris; settings: in vivo
[29] = Unbound clearance in Beagle dog at 1 mg/kg, iv; assay type: ADME, organism-based, Canis lupus familiaris; settings: in vivo
[30] = Volume of distribution at steady state in Cynomolgus monkey at 1 mg/kg, iv; assay type: ADME, organism-based, Macaca fascicularis; settings: in vivo, read-out: Vdss
[31] = Clearance in Cynomolgus monkey at 1 mg/kg, iv; assay type: ADME, organism-based, Macaca fascicularis; settings: in vivo
[32] = Unbound intrinsic clearance in monkey liver microsomes; assay type: ADME, Macaca mulatta, Microsome; settings: rhesus monkey
[33] = Genotoxicity in Salmonella typhimurium; assay type: toxicity; settings: salmonella enterica subsp. enterica serovar typhimurium
[34] = Oral bioavailability in rat at 5 mg/kg; assay type: ADME, organism-based; settings: in vivo
[35] = target: Cystic fibrosis transmembrane conductance regulator (Homo sapiens, UniProt P13569, G551D); experiment: Potentiation of CFTR G551D mutant (unknown origin) expressed in human HEK293 cells co-expressing YFP incubated for 10 mins by halide potentiator assay; assay type: cell-based
[36] = Clearance in rat at 1 mg/kg, iv relative to hepatic blood flow; assay type: ADME, organism-based; settings: in vivo

NC(=O)c1cc(S(=O)(=O)c2ccc(F)cc2)sc1NC(=O)C1(O)CC1
efflux ratio [1]: 137
CL free [2]: 76.7 mL/min/kg
AUC [3]: 500 ng·h/mL
EC50 [4]: 79 nM
Papp A→B [5]: 1 ×10⁻⁶ cm/s
CL free [6]: 107 mL/min/kg

CN(Cc1ccccc1)S(=O)(=O)c1cc(C(N)=O)c(NC(=O)c2ccn[nH]2)s1
efflux ratio [1]: 47
CL free [2]: 1880 mL/min/kg
EC50 [4]: 17 nM
Papp A→B [5]: 0.65 ×10⁻⁶ cm/s
Activity [7]: 115%
Activity [8]: Active

Nc1cc(S(=O)(=O)c2ccccc2OC(F)(F)F)cnc1C(=O)NC[C@@H](O)C(F)(F)F
CL free [2]: 120 mL/min/kg
half-life [9]: 6.7 h
clearance [10]: 9.83 mL/min/kg
EC50 [4]: < 0.31 nM
solubility kinetic [11]: 75 µM (≈ 35.5 µg/mL)
CL free [12]: 258 mL/min/kg
CL free [13]: 45 mL/min/kg
inhibition (INH) [14]: Not Active
Activity [15]: 80%
Vd [16]: 5.1 L/kg

C[C@H](O)CNC(=O)c1ncc(S(=O)(=O)c2ccc(OC(F)(F)F)cc2)cc1N
F [17]: 100%
EC50 (Cytochrome P450 2C9): 26000 nM
bioavailability [18]: 93%
Activity [19]: Non-Toxic
CL free [2]: 41.7 mL/min/kg
half-life [9]: 8.9 h
clearance [10]: 1.33 mL/min/kg
CL free [20]: 21.7 mL/min/kg
solubility thermodynamic [21]: 83 µM (≈ 34.8 µg/mL)
EC50 (Cytochrome P450 1A2): > 100000 nM
EC50 (Cytochrome P450 3A4): > 100000 nM
EC50 [4]: 11 nM
solubility kinetic [11]: 37 µM (≈ 15.5 µg/mL)
CL free [12]: 45 mL/min/kg
EC50 [22]: 18 nM
half-life [23]: 15 h
CL free [24]: 28.3 mL/min/kg
EC50 [25]: > 30000 nM
Vd [26]: 2.7 L/kg
CL free [13]: 20 mL/min/kg
EC50 (Cytochrome P450 2C19): > 33000 nM
half-life [27]: 16 h
EC50 (Cytochrome P450 2D6): > 100000 nM
clearance [28]: 2.33 mL/min/kg
Activity [15]: 12%
CL free [29]: 33 mL/min/kg
Vd [30]: 0.8 L/kg
clearance [31]: 0.667 mL/min/kg
Vd [16]: 1.1 L/kg
CL free [32]: 18.3 mL/min/kg

CC(C)(C)C(=O)Nc1sc(S(=O)(=O)c2ccc(F)cc2)cc1C(N)=O
CL free [2]: 105 mL/min/kg
EC50 [4]: 352 nM

CC(C)(O)CNC(=O)c1ncc(S(=O)(=O)c2ccc(OC(F)(F)F)cc2)cc1N
CL free [2]: 93.3 mL/min/kg
EC50 [4]: 33 nM
solubility kinetic [11]: 37 µM (≈ 16 µg/mL)
Activity [33]: Non-Toxic
inhibition (INH) [14]: Not Active
Activity [15]: 41%

COc1ccc(S(=O)(=O)c2cc(C(N)=O)c(NC(=O)C(C)(C)O)s2)cc1
CL free [2]: 33 mL/min/kg
half-life [9]: 15.5 h
clearance [10]: 2.05 mL/min/kg
AUC [3]: 12400 ng·h/mL
bioavailability [34]: 46%
EC50 [4]: 20 nM
Activity [7]: 85%
EC50 [35]: 478 nM
CL free [12]: 167 mL/min/kg
CL free [13]: 10 mL/min/kg
CLH [36]: < 3%
Vd [16]: 2.7 L/kg

NC(=O)c1cc(S(=O)(=O)c2ccc(F)cc2)sc1NC(=O)c1ccn[nH]1
efflux ratio [1]: 37
CL free [2]: 71.7 mL/min/kg
EC50 [4]: 29 nM
Papp A→B [5]: 0.9 ×10⁻⁶ cm/s

CC(C)(C)c1cc(C(C)(C)C)c(NC(=O)c2c[nH]c3ccccc3c2=O)cc1O
Activity [7]: 53%
